pIC50: −log10 of the molar value. Like-named read-outs stand apart in the source and are kept apart here.
Key:
in vitro = format: cell-based; conditions: human
Protocol: Cell viability. Viability assays were performed using K562 cells with various concentrations of test compounds. K562 cells (0.5×10^4 cells in 100 μL of RPMI media) were distributed into each well of a 96-well plate. Phosphonamidates were added for 72 hours, during the last 2 hours the cell-QB reagent was added, following which signals were quantified with a fluorescence plate reader. Viable cells were expressed as a percentage of untreated control cells after subtraction of a media-only blank.

human Vγ9Vδ2 T cells = assay: Expansion of Vγ9Vδ2 T cells from peripheral blood mononuclear cells; format: cell-based; conditions: ratio of expansion EC50 values
Protocol: Expansion of Vγ9Vδ2 T cells. […] Negative controls contained cells with interleukin 2 in the absence of test compounds. […] All experiments were performed at least three times using cells from at least two different donors.

Vγ9Vδ2 T cells = assay: ELISA for interferon γ: Vγ9Vδ2 T cells mixed with compound-loaded K562 cells; format: cell-based; conditions: Homo sapiens; K562 cells loaded for 4 hours with test compound; 3:1 effector:target; 20 hours; read-out: EC50 [μM] (95% CI), interferon γ production by Vγ9Vδ2 T cells
Protocol: ELISA for interferon γ. Interferon γ was measured by ELISA as previously described and according to manufacturer's directions (see Kilcollins, A. M., et al., J. Immunol. 2016, 197, 419-428; and Shippy, R. R., et al., J Med. Chem. 2017, 60, 2373-2382. Briefly, K562 cells were treated with test compounds for 4 hours, washed, then mixed with V79Vδ2 T cells that had been purified by negative selection. Each well contained a 3:1 effector: target ratio in 200 μL. After 20 hours, the concentration of interferon γ in the supernatant was determined. Data for representative compounds of the invention is shown in Table 2 (see FIG. 4).

[1] = Stability in 50% pooled human plasma in PBS (LCMS); format: in vitro ADME
Protocol: Stability studies. Pooled human plasma was diluted to 50% with phosphate buffered saline at pH 7.5. Test compounds were added at a final concentration of 100 μM in a volume of 100 μL. Compounds were incubated for various times as indicated in the text, then extracted with 300 μL of LCMS grade acetonitrile and vigorous mixing. Insoluble debris was pelleted by centrifugation at 10,000 rcf for 2 minutes. 10 μL of the extract was evaluated by LCMS with a Waters Synapt G2-Si Mass Spectrometer in positive mode using a gradient of water and acetonitrile and a C18 column. The gradient started at 25% acetonitrile then increased to 80% acetonitrile over 9 minutes and held there for 1 minute before re-equilibration. […] The integrated values of these peaks were compared to those of t=0 minutes in plasma for each test compound and expressed as a fraction of the initial compound that was remaining at a given time point.

[2] = cited from earlier work
[3] = 72 hour, read-out: IC50 [μM], cytotoxicity against K562 cells

SMILES | IC50 at 72 h (in vitro) | Fold difference vs cmpd 10 (human Vγ9Vδ2 T cells) | Fold difference vs cmpd 11 (human Vγ9Vδ2 T cells) | EC50 (Vγ9Vδ2 T cells) | IC50 at 72 h (in vitro; [3]) | t1/2 [1] | stability in plasma [2] | pIC50 (in vitro)
Oc1ccc2ccccc2c1 [Compound 2-naphthol, 2-naphthol, reference compound] | > 100 µM |  |  |  |  |  |  | 
C/C(=C\CCP(=O)(NCC(=O)OC(C)C)Oc1ccc2ccccc2c1)CO (centres unmarked) [Compound 9, Isopropyl 2-[[[(E)-5-hydroxy-4-methyl-pent-3-enyl]-(2-naphthyloxy)phosphoryl]amino]acetate] |  | 4900 | 6.6 | 0.21 µM | > 100 µM | >24 h |  | 
Oc1cccc2ccccc12 [Compound 1-naphthol, 1-naphthol, reference compound] | > 100 µM |  |  |  |  |  |  | 
C/C(=C\COP(=O)(O)OP(=O)(O)O)CO [HMBPP] |  |  |  |  |  |  | not stable in plasma | 
Oc1ccccc1 [Phenol, reference compound] |  |  |  |  |  |  |  | < 4.00
C/C(=C\CCP(=O)(OCOC(=O)C(C)(C)C)OCOC(=O)C(C)(C)C)CO [Compound 104, reference compound] |  |  |  |  |  | 0.14 h |  | 
COC(=O)CNP(=O)(CC/C=C(\C)CO)Oc1ccccc1 (centres unmarked) [Compound 1, Methyl 2-[[[(E)-5-hydroxy-4-methyl-pent-3-enyl]-phenoxy-phosphoryl]amino]acetate] |  | 2700 | 3.6 | 0.46 µM | > 100 µM | >24 h |  | 
COC(=O)CNP(=O)(CC/C=C(\C)CO)Oc1cccc2ccccc12 (centres unmarked) [Compound 4, Methyl 2-[[[(E)-5-hydroxy-4-methyl-pent-3-enyl]-(1-naphthyloxy)phosphoryl]amino]acetate] |  | 9100 | 12 | 0.13 µM | 40 µM | >24 h |  | 
CCOC(=O)CNP(=O)(CC/C=C(\C)CO)Oc1ccccc1 (centres unmarked) [Compound 2, Ethyl 2-[[[(E)-5-hydroxy-4-methyl-pent-3-enyl]-phenoxy-phosphoryl]amino]acetate] |  |  |  | 0.17 µM | > 100 µM |  |  | 
COC(=O)CNP(=O)(CC/C=C(\C)CO)Oc1ccc2ccccc2c1 (centres unmarked) [Compound 7, Methyl 2-[[[(E)-5-hydroxy-4-methyl-pent-3-enyl]-(2-naphthyloxy)phosphoryl]amino]acetate] |  | 6900 | 9.3 | 0.12 µM | > 100 µM | >24 h |  | 
CCOC(=O)CNP(=O)(CC/C=C(\C)CO)Oc1ccc2ccccc2c1 (centres unmarked) [Compound 8, Ethyl 2-[[[(E)-5-hydroxy-4-methyl-pent-3-enyl]-(2-naphthyloxy)phosphoryl]amino]acetate] |  | 7500 | 10 | 0.093 µM | 28 µM | >24 h |  | 
CCOC(=O)CNP(=O)(CC/C=C(\C)CO)Oc1cccc2ccccc12 (centres unmarked) [Compound 5, Ethyl 2-[[[(E)-5-hydroxy-4-methyl-pent-3-enyl]-(1-naphthyloxy)phosphoryl]amino]acetate] |  | 11000 | 15 | 0.062 µM | 24 µM | >24 h |  | 
C/C(=C\CCP(=O)(NCC(=O)OC(C)C)Oc1ccccc1)CO (centres unmarked) [Compound 3, Isopropyl 2-[[[(E)-5-hydroxy-4-methyl-pent-3-enyl]-phenoxy-phosphoryl]amino]acetate] |  | 3600 | 4.9 | 0.74 µM | 23 µM | >24 h |  | 
C/C(=C\CCP(=O)(NCC(=O)OC(C)C)Oc1cccc2ccccc12)CO (centres unmarked) [Compound 6, Isopropyl 2-[[[(E)-5-hydroxy-4-methyl-pent-3-enyl]-(1-naphthyloxy)phosphoryl]amino]acetate] |  | 12000 | 16 | 0.29 µM | > 100 µM | >24 h |  | 

— patent US11926641B2, “Phosphonamidate butyrophilin ligands” (UNIVERSITY OF IOWA RESEARCH FOUNDATION, priority 2018, dated 2024)
